The source made the active and inactive calls.
How the values were obtained:
[1] = biological target: ALK tyrosine kinase receptor (Homo sapiens, UniProt Q9UM73); assay type: functional;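 also: ALK tested as one member of a kinase panel screen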
Wee1-like protein kinase = Wee1-like protein kinase (Homo sapiens, UniProt P30291); assay: Navigating the Kinome. Panel member name: WEE1; assay type: functional
[2] = A High Throughput Confirmatory Assay used to Identify Novel Compounds that Inhibit Mycobacterium Tuberculosis in the absence of Glycerol using Purified and Synthesized Compounds (3).; assay type: functional
Hexokinase HKDC1 = biological target: T1, Hexokinase HKDC1 (Homo sapiens, UniProt Q2TB90); assay: activation of HKDC1 glucose phosphorylation – biochemical, W721R variant, dose response (AID 504730); assay type: functional
T1 sequence (Q2TB90 whole entry): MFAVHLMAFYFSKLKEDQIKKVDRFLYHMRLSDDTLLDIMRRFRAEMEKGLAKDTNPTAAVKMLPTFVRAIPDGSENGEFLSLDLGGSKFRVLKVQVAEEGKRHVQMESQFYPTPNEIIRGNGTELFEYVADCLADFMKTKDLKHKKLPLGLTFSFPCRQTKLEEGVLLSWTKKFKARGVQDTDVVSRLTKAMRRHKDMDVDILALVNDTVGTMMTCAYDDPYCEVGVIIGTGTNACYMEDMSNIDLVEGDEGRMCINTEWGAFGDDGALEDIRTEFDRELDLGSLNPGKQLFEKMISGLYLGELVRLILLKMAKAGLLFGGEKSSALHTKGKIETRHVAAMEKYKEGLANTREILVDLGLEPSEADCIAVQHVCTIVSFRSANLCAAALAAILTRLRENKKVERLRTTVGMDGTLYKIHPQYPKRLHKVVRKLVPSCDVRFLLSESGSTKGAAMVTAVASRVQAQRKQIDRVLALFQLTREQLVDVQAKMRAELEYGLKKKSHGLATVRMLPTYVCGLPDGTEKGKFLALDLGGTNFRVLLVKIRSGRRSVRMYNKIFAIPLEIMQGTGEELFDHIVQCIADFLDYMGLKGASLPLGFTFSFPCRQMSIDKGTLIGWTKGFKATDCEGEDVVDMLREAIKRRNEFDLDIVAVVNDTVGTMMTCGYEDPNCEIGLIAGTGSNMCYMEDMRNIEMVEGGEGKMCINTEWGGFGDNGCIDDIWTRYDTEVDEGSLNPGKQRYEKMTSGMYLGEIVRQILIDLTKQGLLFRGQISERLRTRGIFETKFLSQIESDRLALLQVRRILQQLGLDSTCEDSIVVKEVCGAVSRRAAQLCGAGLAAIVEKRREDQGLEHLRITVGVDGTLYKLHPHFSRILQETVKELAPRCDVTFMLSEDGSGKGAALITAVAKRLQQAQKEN

Nonstructural protein 1 = Nonstructural protein 1 (Influenza A virus, UniProt Q194T2); assay type: functional, Influenza A virus (A/California/07/2009(H1N1))
Hexokinase-1 = Hexokinase-1 (Homo sapiens, UniProt P19367); assay: HK1 enzyme activation by HKDC1 hits – biochemical, selectivity assay for HKDC1 activator project, dose response (AID 504762); assay type: functional
[3] = biological target: Latent membrane protein 1 (Human herpesvirus 4 (strain B95-8), UniProt P03230); assay: LMP1 TES1 pathway selectivity over dsRED control – imaging, HEK293T, dual-color eGFP/dsRED, cherry-picks, selectivity assay for LMP1 NF-kB inhibitor project, dose response (AID 588398); assay type: functional, cell-based
HEK293 [4] = assay: HEK293T cell viability loss, resazurin readout – resazurin fluorescence, cytotoxicity control for NF-kB activator project, SAR follow-up (AID 493251); assay type: functional, cell-based; conditions: Homo sapiens
Jurkat = assay: SAR Analysis of small molecule inhibitors of both B-cell and T-cell specific antigen receptor-induced NF-kB activation in a Jurkat cell line using a luminescence assay. [Related pubchem assays (depositor defined):AID435003, AID435022, AID465, AID489029]; assay type: functional, cell-based; conditions: Homo sapiens
HEK293 [5] = assay: SAR Analysis of small molecule inhibitors of both B-cell and T-cell specific antigen receptor-induced NF-kB activation in a HEK-293T cell line using a luminescence assay. [Related pubchem assays (depositor defined):AID435003, AID435022, AID465, AID489019, AID489029]; assay type: functional, cell-based; conditions: Homo sapiens
Caspase-3 = biological target: T2, Caspase-3 (Homo sapiens, UniProt P42574); assay: inhibition of recombinant caspase-3 activity – biochemical, luminescence, set 2, selectivity assay for SENP protease inhibitor project, SAR follow-up (AID 588599); assay type: functional
T2 sequence (P42574 whole entry): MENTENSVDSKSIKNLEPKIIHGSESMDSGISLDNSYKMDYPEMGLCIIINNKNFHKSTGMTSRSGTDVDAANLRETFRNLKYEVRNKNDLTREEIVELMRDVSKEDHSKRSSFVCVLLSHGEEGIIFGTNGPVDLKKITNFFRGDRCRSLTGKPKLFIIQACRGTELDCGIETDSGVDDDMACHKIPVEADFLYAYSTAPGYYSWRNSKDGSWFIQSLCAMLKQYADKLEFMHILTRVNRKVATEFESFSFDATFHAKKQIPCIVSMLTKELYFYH

[6] = biological target: T3, Sentrin-specific protease 8 (Homo sapiens, UniProt Q96LD8); assay: inhibition of sentrin protease 8 – biochemical, luminescence, set 2, SAR follow-up (AID 588601); assay type: functional
T3 sequence (Q96LD8 whole entry): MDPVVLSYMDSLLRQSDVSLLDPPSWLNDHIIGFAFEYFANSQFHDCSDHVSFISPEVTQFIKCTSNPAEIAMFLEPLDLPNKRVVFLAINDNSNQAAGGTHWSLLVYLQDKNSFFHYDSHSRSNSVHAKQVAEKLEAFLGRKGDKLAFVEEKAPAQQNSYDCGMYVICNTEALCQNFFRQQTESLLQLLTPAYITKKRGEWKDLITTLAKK

[7] = biological target: T4, Sentrin-specific protease 7 (Homo sapiens, UniProt Q9BQF6); assay: inhibition of human SENP7 cleavage activity – biochemical, luminescence, set 2, SAR follow-up (AID 588600); assay type: functional
T4 sequence (Q9BQF6 whole entry): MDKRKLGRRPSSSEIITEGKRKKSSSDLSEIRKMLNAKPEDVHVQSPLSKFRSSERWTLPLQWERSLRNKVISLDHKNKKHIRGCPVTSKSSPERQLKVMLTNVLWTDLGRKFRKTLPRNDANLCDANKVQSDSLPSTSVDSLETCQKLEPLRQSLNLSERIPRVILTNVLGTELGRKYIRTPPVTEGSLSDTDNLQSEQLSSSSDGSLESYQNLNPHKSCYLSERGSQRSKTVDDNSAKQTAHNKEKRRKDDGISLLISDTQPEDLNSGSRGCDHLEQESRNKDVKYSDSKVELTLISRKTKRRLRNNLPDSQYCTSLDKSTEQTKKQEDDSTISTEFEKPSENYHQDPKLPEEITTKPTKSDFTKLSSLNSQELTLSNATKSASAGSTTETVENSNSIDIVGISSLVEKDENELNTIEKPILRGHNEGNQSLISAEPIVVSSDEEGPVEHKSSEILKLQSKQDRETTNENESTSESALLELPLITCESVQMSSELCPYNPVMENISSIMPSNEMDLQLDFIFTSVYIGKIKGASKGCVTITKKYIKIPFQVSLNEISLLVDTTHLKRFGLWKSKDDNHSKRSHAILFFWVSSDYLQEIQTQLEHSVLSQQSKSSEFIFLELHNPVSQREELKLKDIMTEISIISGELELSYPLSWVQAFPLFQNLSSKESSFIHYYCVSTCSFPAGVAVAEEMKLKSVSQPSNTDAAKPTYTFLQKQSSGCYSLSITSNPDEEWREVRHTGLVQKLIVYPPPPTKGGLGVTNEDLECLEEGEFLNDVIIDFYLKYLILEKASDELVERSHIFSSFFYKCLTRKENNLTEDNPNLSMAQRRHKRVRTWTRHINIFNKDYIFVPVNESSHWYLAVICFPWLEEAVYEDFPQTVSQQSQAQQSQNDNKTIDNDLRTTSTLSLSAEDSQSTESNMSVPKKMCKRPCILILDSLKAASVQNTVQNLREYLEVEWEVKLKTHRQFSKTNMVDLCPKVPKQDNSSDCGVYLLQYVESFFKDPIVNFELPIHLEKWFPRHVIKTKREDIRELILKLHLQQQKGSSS

[8] = biological target: T5, Sentrin-specific protease 6 (Homo sapiens, UniProt Q9GZR1); assay: inhibition of human SENP6 catalytic domain – biochemical, luminescence, set 2, SAR follow-up (AID 588598); assay type: functional
T5 sequence (Q9GZR1 whole entry): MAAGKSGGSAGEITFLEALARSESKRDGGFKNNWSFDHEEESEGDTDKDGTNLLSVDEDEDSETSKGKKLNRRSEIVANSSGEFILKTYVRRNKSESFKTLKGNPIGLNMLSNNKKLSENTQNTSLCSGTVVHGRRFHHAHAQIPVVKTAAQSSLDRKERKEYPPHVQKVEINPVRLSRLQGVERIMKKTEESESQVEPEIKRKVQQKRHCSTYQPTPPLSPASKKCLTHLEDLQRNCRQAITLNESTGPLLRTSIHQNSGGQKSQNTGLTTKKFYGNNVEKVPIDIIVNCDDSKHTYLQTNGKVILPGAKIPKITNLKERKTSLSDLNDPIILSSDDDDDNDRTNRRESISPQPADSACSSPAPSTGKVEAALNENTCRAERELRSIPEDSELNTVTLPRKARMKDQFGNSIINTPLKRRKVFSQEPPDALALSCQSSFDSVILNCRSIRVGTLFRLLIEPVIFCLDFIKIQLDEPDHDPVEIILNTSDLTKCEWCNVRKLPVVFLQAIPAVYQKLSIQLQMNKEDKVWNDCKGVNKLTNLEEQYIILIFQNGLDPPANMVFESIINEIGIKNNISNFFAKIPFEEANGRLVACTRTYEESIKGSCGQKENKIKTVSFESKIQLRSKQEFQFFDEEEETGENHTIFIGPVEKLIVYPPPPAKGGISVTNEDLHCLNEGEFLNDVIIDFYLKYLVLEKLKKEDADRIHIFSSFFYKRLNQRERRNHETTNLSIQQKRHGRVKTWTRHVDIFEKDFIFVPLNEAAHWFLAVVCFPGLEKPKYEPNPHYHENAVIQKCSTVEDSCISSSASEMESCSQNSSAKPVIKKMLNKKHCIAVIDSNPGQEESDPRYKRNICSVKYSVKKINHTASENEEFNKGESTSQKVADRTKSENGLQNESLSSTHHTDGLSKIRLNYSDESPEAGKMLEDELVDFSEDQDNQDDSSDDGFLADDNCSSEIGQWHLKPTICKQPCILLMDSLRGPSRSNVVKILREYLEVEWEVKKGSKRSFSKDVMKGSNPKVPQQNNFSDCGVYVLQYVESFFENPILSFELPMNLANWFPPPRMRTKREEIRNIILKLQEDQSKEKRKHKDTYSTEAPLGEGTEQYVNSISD

[9] = biological target: Melanin-concentrating hormone receptor 1 (Homo sapiens, UniProt Q99705); assay: Late-stage fluorescence-based counterscreen for antagonists of the G-protein coupled receptor 7 (GPR7): cell-based dose response assay to identify antagonists of the melanin-concentrating hormone receptor 1 (MCHR1) Set 5.; assay type: functional
[10] = biological target: Proto-oncogene tyrosine-protein kinase receptor Ret (Homo sapiens, UniProt P07949); assay type: functional;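 also: measured within a kinome-wide profiling panel, RET as the panel member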
[11] = biological target: Serine/threonine-protein kinase D3 (Homo sapiens, UniProt O94806); assay type: functional;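 also: determined within a kinase panel screen, with PRKCN as the panel member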
[12] = biological target: Mitogen-activated protein kinase 9 (Homo sapiens, UniProt P45984); assay type: functional;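 also: value from a kinome panel profiling assay, MAPK9 panel entry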
[13] = biological target: Platelet-derived growth factor receptor alpha (Homo sapiens, UniProt P16234); assay: Navigating the Kinome. Panel member name: PDGFRA; assay type: functional
[14] = biological target: Calcium/calmodulin-dependent protein kinase type II subunit alpha (Homo sapiens, UniProt Q9UQM7); assay: Navigating the Kinome. Panel member name: CAMK2A; assay type: functional
[15] = biological target: Serine/threonine-protein kinase pim-1 (Homo sapiens, UniProt P11309); assay type: functional
[16] = biological target: Calcium/calmodulin-dependent protein kinase type II subunit beta (Homo sapiens, UniProt Q13554); assay type: functional
[17] = biological target: Protein kinase C zeta type (Homo sapiens, UniProt Q05513); assay type: functional;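 also: measured as one member of a broad kinase profiling panel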
[18] = biological target: Protein kinase C gamma type (Homo sapiens, UniProt P05129); assay type: functional
[19] = biological target: MAP kinase-activated protein kinase 3 (Homo sapiens, UniProt Q16644); assay type: functional;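 also: value comes from a kinome-wide profiling panel in which MAPKAPK3 is one of the panel members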
[20] = biological target: G protein-coupled receptor kinase 5 (Homo sapiens, UniProt P34947); assay: Navigating the Kinome. Panel member name: GPRK5; assay type: functional

Calcium/calmodulin-dependent protein kinase type II subunit beta, sequence (Q13554 whole entry): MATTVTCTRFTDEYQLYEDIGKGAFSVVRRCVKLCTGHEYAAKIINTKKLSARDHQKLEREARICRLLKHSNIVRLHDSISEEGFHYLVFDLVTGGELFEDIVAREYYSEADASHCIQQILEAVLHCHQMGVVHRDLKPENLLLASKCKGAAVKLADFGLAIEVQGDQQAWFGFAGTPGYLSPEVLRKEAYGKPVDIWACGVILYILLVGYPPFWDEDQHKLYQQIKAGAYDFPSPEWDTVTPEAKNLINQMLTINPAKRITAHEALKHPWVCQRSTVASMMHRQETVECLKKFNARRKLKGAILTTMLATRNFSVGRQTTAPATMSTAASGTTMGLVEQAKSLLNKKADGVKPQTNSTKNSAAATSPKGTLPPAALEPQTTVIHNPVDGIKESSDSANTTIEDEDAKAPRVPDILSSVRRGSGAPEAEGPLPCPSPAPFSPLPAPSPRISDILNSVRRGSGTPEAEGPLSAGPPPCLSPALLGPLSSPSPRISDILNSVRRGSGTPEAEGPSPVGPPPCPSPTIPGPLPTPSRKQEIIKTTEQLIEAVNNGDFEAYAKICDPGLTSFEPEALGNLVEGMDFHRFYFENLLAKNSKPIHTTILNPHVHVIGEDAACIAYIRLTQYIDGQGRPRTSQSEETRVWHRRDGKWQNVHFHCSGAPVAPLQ
Mitogen-activated protein kinase 9, sequence (P45984 whole entry): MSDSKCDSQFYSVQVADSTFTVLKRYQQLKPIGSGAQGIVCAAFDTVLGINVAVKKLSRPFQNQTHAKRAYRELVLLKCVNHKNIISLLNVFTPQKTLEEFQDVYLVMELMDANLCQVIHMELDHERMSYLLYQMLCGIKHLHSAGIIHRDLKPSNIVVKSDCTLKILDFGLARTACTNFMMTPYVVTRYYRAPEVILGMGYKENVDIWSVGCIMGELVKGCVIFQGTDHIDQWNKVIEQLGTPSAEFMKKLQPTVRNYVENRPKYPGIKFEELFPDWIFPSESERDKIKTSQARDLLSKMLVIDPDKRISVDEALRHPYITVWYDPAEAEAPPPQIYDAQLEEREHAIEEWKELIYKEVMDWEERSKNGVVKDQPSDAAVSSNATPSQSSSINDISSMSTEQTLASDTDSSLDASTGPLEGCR
Proto-oncogene tyrosine-protein kinase receptor Ret, sequence (P07949 whole entry): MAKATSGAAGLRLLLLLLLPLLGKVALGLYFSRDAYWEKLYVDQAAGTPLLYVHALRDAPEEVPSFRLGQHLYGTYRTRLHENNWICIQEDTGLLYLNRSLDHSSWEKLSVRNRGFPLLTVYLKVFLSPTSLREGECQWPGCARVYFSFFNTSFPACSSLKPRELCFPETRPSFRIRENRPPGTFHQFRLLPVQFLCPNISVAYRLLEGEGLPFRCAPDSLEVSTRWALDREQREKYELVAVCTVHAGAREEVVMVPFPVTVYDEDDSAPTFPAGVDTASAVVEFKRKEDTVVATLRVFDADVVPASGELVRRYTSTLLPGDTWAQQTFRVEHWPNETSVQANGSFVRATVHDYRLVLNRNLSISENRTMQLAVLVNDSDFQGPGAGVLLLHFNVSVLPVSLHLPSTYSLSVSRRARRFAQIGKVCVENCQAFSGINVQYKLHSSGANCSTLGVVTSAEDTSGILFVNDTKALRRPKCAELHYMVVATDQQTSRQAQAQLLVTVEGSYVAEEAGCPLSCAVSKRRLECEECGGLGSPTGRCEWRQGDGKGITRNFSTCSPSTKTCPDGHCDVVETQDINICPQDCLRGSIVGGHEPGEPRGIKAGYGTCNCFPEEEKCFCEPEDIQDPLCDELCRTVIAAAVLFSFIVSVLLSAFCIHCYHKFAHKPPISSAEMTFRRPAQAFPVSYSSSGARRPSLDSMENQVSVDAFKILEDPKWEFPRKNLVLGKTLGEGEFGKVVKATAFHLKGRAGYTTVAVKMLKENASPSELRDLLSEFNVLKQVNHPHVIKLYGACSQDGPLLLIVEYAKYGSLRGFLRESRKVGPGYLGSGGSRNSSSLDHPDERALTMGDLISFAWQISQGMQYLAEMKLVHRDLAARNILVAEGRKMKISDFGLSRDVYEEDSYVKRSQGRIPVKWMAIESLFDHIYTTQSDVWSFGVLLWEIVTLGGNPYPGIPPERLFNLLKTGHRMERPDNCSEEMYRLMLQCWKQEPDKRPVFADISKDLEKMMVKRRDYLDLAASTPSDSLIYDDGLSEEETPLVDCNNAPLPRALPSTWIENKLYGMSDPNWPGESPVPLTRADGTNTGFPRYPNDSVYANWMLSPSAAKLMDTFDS
Wee1-like protein kinase, sequence (P30291 whole entry): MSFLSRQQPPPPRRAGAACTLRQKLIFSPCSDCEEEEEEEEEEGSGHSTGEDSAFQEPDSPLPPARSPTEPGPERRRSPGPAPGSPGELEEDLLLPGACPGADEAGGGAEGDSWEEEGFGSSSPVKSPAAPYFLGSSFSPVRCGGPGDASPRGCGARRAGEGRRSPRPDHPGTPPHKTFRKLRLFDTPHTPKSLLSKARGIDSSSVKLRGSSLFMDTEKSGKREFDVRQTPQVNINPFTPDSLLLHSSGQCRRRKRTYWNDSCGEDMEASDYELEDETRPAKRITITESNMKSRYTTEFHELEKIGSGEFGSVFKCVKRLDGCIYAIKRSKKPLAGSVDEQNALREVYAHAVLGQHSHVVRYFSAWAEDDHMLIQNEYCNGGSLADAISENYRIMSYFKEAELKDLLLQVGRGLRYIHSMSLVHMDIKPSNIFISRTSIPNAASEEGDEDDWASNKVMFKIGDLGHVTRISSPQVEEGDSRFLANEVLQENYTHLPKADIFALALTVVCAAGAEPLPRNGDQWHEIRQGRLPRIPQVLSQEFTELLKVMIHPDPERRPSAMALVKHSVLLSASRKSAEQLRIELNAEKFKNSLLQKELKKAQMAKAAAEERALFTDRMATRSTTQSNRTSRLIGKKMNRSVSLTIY
Platelet-derived growth factor receptor alpha, sequence (P16234 whole entry): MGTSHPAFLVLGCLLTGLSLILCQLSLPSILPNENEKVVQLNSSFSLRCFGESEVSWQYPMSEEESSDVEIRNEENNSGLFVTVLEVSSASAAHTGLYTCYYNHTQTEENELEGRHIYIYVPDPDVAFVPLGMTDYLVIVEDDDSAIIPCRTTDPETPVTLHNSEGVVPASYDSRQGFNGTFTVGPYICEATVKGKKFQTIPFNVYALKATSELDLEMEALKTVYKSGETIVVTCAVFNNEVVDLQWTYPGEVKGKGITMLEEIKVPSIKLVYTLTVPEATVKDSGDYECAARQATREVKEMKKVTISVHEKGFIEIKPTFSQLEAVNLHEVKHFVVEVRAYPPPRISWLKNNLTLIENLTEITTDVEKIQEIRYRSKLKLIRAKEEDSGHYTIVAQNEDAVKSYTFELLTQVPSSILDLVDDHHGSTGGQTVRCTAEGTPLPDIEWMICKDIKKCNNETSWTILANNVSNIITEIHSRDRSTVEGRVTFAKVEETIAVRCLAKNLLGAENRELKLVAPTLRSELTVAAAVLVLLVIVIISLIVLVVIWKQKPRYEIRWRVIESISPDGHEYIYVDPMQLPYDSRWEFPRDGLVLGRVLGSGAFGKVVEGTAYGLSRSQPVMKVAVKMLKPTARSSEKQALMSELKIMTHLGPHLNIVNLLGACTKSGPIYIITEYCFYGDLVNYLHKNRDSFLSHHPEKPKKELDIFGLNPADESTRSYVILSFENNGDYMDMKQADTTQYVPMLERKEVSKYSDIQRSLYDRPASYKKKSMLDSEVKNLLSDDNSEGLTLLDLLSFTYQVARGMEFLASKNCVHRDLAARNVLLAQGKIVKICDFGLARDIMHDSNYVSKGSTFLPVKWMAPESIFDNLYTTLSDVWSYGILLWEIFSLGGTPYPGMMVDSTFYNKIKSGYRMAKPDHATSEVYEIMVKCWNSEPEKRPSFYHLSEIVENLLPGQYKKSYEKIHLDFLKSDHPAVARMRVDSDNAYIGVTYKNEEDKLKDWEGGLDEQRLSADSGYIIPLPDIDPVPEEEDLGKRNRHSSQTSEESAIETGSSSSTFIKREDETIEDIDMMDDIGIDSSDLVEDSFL
Serine/threonine-protein kinase pim-1, sequence (P11309 whole entry): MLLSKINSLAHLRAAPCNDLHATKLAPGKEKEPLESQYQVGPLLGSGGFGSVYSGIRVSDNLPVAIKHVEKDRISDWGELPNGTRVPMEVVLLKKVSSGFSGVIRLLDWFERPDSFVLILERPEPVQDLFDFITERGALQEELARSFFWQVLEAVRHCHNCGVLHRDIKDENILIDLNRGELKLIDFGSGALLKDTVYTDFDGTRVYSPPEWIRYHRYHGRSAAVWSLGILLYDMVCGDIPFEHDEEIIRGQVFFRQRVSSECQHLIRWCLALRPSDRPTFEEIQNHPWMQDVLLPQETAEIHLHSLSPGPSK
Latent membrane protein 1, sequence (P03230 whole entry): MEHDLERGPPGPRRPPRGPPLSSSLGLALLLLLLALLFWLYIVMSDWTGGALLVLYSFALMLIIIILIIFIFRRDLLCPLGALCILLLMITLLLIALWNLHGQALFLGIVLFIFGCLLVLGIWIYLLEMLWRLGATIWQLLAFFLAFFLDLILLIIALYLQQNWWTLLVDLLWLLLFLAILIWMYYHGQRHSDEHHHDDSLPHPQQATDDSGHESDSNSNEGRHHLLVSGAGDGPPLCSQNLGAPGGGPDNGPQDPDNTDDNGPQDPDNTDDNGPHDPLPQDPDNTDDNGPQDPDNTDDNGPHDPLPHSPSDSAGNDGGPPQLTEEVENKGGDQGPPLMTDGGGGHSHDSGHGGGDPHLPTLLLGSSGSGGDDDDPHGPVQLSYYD
MAP kinase-activated protein kinase 3, sequence (Q16644 whole entry): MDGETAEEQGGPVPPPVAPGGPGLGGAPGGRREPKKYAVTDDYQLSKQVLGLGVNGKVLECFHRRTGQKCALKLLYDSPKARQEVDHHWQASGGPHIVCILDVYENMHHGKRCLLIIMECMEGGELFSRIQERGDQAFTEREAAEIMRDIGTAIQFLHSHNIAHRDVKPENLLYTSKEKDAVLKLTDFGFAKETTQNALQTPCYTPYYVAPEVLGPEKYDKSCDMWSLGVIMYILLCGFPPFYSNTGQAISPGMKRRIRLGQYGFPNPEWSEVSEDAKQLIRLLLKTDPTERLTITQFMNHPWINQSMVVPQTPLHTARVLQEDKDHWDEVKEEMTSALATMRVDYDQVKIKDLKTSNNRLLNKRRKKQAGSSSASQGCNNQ

CCNc1nc(C)c(-c2ccnc(Nc3ccc(N4CCNCC4)cc3)n2)s1
Ki [1]: 0.2 µM (active)
Ki (Wee1-like protein kinase): 0.0794 µM (active)

CCOc1ccc(NC(=O)CSc2nc(O)c(C)c(=O)n2-c2ccc(F)cc2)cc1
IC50 [2]: > 25 µM (active)

COc1ccccc1NC(=S)NN=C(C)c1ccccn1
EC50 (Hexokinase HKDC1): 3.03 µM (active)
IC50 (Nonstructural protein 1): 25.8 µM (active)
EC50 (Hexokinase-1): > 80 µM (inactive)
AC50 [3]: 0.638 µM (active)

COc1cc(N)c2ncccc2c1
IC50 (HEK293 [4]): 43.1 µM (inactive)
IC50 (Jurkat): 76.2 µM (inactive)
IC50 (HEK293 [5]): > 79 µM (inactive)

Cc1[nH]c2ccccc2c1/C=N/NC(=O)c1cc2ccccc2cc1O
IC50 (Caspase-3): > 99 µM (inactive)
IC50 [6]: 79.4 µM (active)
IC50 [7]: 95.7 µM (active)
IC50 [8]: 83.4 µM (active)

COc1ccc(Oc2c(Cl)cnn(Cc3cccc4ccccc34)c2=O)cc1OC
IC50 [9]: 1.44 µM (active)

CCN(CCN(C)C)C(=O)c1cccc(-n2nc(C(C)(C)C)cc2NC(=O)Nc2cccc3ccccc23)c1
Ki [10]: 1.58 µM (active)
Ki [11]: 3.16 µM (active)
Ki [12]: 3.16 µM (active)
Ki [13]: 1.26 µM (active)
Ki [14]: > 7.94 µM (inactive)

CNCCONC(=O)c1ccc(F)c(F)c1Nc1ccc(I)cc1F
Ki [15]: 2 µM (active)
Ki [16]: 7.94 µM (active)

O=c1ncn2nc(Sc3ccc(F)cc3F)ccc2c1-c1c(Cl)cccc1Cl [NEFLAMAPIMOD]
Ki [17]: > 7.94 µM (inactive)
Ki [18]: > 7.94 µM (inactive)
Ki [19]: > 10 µM (inactive)
Ki [20]: > 3.98 µM (inactive)

— ChEMBL document CHEMBL1201862, “PubChem BioAssay data set” (2004)
